The source of these data is publication PMC11582634, “Discovering the inhibition of YAP/TEAD Hippo signaling pathway via new pyrazolone derivatives: synthesis, molecular docking and biological investigations” (Scientific Reports, 2024).

A short description of data set [1]: DPPH free radical scavenging (antioxidant) assay. The following applies: in-vitro. The procedure: The synthesized pyrazolone derivatives’ capacity to scavenge free radicals DPPH was assessed using a modified Zheleva-Dimitrova technique. Also, the DPPH radical was investigated to L-ascorbic acid with concentrations (10–100 μM) that serving as the standard positive control and the scavenging percent was calculated by Eq. 1.1 [drawing 1]
On the technique in general: Loss of DPPH colour is used to gauge radical scavenging.

In data set [2] the test system is HCT-116, HepG2, and MCF-7. Briefly: MTT assay, whole panel of cancer cell lines (result in words). It is filed as cell-based, human. The following applies: 48 h, compared with Sorafenib. The source says:
(§1) Mammary gland (MCF-7;# ATCC HTB-22), colorectal adenocarcinoma (HCT-116; # ATCC CCL-247)), hepatocellular carcinoma (HepG-2; #ATCC HB-8065), and human lung fibroblast (WI-38; # ATCC CCL-75). The ATCC cell line was obtained via the Holding Company for Biological Products and Vaccines (VACSERA), Cairo, Egypt.
(§2) The MTT test was utilized to ascertain the pyrazolone derivatives’ inhibitory effects on cell growth using the aforementioned cell lines. This colorimetric assay is based on the transformation of yellow tetrazolium bromide (MTT) by mitochondrial succinate dehydrogenase in living cells into a purple formazan derivative. The RPMI-1640 medium was supplemented with 10% fetal bovine serum to cultivate cell lines. At 37° C in an incubator with 5% CO2, 100 units/mL of penicillin and 100 µg/mL of streptomycin were introduced as antibiotics. The cell lines were seeded by 1.0 × 10^4 cells/well in a 96-well plate and kept at 37 °C for 24 h with 5% CO2. Following incubation, the cells were subjected to several concentrations of newly synthesized pyrazolone derivatives and left for 48 h incubation.20 µL of a 5 mg/mL MTT solution was added and incubated for 4 h after the drug treatment. To dissolve the purple formazan produced in each well, 100 µL of dimethyl sulfoxide (DMSO) was applied. The colorimetric test is performed at 630 nm absorbance and recorded using a plate reader (EXL 800, USA)[32].
(§3) GraphPad Prism 6 (San Diego, CA) (GraphPad Prism 6, https://www.graphpad.com/scientific-software/prism/) was used to calculate the IC50 values and the data was expressed as mean ± SE.
In general terms: Tetrazolium assays rely on reduction of a dye to a coloured formazan, in cell work by metabolically active cells.

The next data set relates to HCT-116. Briefly: MTT assay, HCT-116 colorectal adenocarcinoma cells. The following applies: Homo sapiens, 48 h, mean ± SE, read-out: IC50 against HCT-116. It is filed as cell-based.
For another data set, the system named is MCF-7. Put plainly: MTT assay, MCF-7 mammary gland cells. The format is cell-based. The following applies: Homo sapiens, MCF7, 48 h, mean ± SE, read-out: IC50 against MCF-7.
The test system of a further data set is WI-38. Put plainly: MTT assay, WI-38 normal human lung fibroblast cells. The format is cell-based. The following applies: 48 h, compared with SOR.
Source text: as §1
as §2, with “Following incubation, the cells were subjected to several concentrations of newly synthesized pyrazolone derivatives and left for 48 h incubation.20 µL of a 5 mg/mL MTT solution was added and incubated for 4 h after the drug treatment. To dissolve the purple formazan produced in each well, 100 µL of dimethyl sulfoxide (DMSO) was applied.” left out
as §3

The next data set concerns HepG-2. Briefly: MTT assay, HepG-2 hepatocellular carcinoma cells. The format is cell-based. The following applies: Homo sapiens, HepG2, 48 h, mean ± SE, read-out: IC50 against HepG-2.
Data set [3] can be described thus: MTT assay, WI-38 normal human lung fibroblast cells. The format is cell-based. The following applies: human, WI-38 normal lung fibroblast cells.
Source text: as §1
as §2, with “Following incubation, the cells were subjected to several concentrations of newly synthesized pyrazolone derivatives and left for 48 h incubation.20 µL of a 5 mg/mL MTT solution was added and incubated for 4 h after the drug treatment. To dissolve the purple formazan produced in each well, 100 µL of dimethyl sulfoxide (DMSO) was applied.” left out
as §3

As usually defined, the IC50 is the concentration needed to halve the response being measured. In turn, “3-amino-4-((4-(6-(4-(dimethylamino)phenyl)-2-oxo-1,2-dihydropyridine-4-yl)phenyl)diazenyl)-1-phenyl-1H-pyrazole-5(4H)-one [Compound 7]” showed an IC50 in data set [1] of 93.7 ± 0.47 µM. Besides, the “Impact on all panels of cancer cell lines (in words)” value (shortened to “Impact on all panels”) in data set [2] is listed as “moderate to weak impact”.
By melting point is commonly meant the temperature, or range, at which the solid turns liquid. Take `CN(C)c1ccc(C2CC(c3ccc(N=NC4C(=O)N(c5ccccc5)N=C4N)cc3)=NN2c2ccccc2)cc1` (stereo not drawn) [Compound 4, 3-amino-4-((4-(5-(4-(dimethylamino)phenyl)-1-phenyl-4,5-dihydro-1H-pyrazole-3-yl)phenyl)diazenyl)-1-phenyl-1H-pyrazole-5(4H)-one]: the melting point was determined as 96 °C. In addition, in the data set on HCT-116, the IC50 was 7.67 ± 0.5 µM. In data set [1], the IC50 stood at 19.88 ± 0.15 µM. Moreover, the IC50 with MCF-7 worked out at 6.97 ± 0.5 µM. In addition, in the data set with WI-38, the “Cytotoxic effect on WI-38 normal cells (in words)” value was “no cytotoxic effects”. Further, the IC50 in the data set on HepG-2 came to 5.85 ± 0.4 µM.
Take `CC(=O)N1N=C(c2ccc(N=NC3C(=O)N(c4ccccc4)N=C3N)cc2)CC1c1ccc(N(C)C)cc1` (stereo not drawn) [Compound 6, 4-((4-(1-acetyl-5-(4-(dimethylamino)phenyl)-4,5-dihydro-1H-pyrazole-3-yl)phenyl)diazenyl)-3-amino-1-phenyl-1H-pyrazole-5(4H)-one]: the melting point is 74 °C. The IC50 in the data set on HCT-116 was determined as 16.5 ± 1.3 µM. Inhibition in data set [1] was half-maximal at 32.4 ± 0.2 µM (IC50). Besides, the IC50 with MCF-7 came to 19.8 ± 1.5 µM. Besides, the IC50 with HepG-2 was 25.6 ± 1.7 µM.
`CN(C)c1ccc(-c2cc(-c3ccc(N=NC4C(=O)N(c5ccccc5)N=C4N)cc3)nc(=S)[nH]2)cc1` (stereo not drawn) [Compound 8, 3-amino-4-((4-(6-(4-(dimethylamino)phenyl)-2-thioxo-1,2-dihydropyrimidin-4-yl)phenyl)diazenyl)-1-phenyl-1H-pyrazol-5(4H)-one] displayed a melting point of 103 °C. Further, in data set [1], the 50% inhibitory concentration (IC50) came out at 65.54 ± 0.32 µM. For the same compound, the “Impact on all panels” value in data set [2] was “moderate to weak impact”.
The matching figures for `CN(C)c1ccc(C2C=C(c3ccc(/N=N/C4C(=O)N(c5ccccc5)N=C4N)cc3)OC(N)=C2C#N)cc1` (stereo not drawn) [Compound 9, (E)-2-amino-6-(4-((3-amino-5-oxo-1-phenyl-4,5-dihydro-1H-pyrazole-4-yl)diazenyl)phenyl)-4-(4-(dimethylamino)phenyl)-4H-pyran-3-carbonitrile]: 139 °C, 47.07 ± 0.24 µM and “moderate to weak impact”.
In the case of `CN(C)c1ccc(-c2cc(-c3ccc(/N=N/C4C(=O)N(c5ccccc5)N=C4N)cc3)nc(N)c2C#N)cc1` (stereo not drawn) [Compound 10, (E)-2-amino-6-(4-((3-amino-5-oxo-1-phenyl-4,5-dihydro-1H-pyrazole-4-yl)diazenyl)phenyl)-4-(4-(dimethylamino)phenyl)nicotinonitrile], the melting point was determined as 116 °C. The compound also gave an IC50 in data set [1] of 74.3 ± 0.38 µM. In addition, the “Impact on all panels” value in data set [2] is “moderate to weak impact”.
The like results for `CN(C)c1ccc(-c2cc(-c3ccc(/N=N/C4C(=O)N(c5ccccc5)N=C4N)cc3)[nH]c(=O)c2C#N)cc1` (stereo not drawn) [Compound 11, (E)-6-(4-((3-amino-5-oxo-1-phenyl-4,5-dihydro-1H-pyrazol-4-yl)diazenyl)phenyl)-4-(4-(dimethylamino)phenyl)-2-oxo-1,2-dihydropyridine-3-carbonitrile] were, in that order, 92 °C, 53.67 ± 0.29 µM and “moderate to weak impact”.
As to `O=C1O[C@H]([C@@H](O)CO)C(O)=C1O` [L-ascorbic acid, reference compound], half-maximal inhibition in data set [1] (IC50) was put at 16.81 ± 0.1 µM.
Take `CNC(=O)c1cc(Oc2ccc(NC(=O)Nc3ccc(Cl)c(C(F)(F)F)c3)cc2)ccn1` [Sorafenib, reference compound]: in data set [3], the IC50 at 48 h came to 20.3 ± 0.45 µM.
